For data set [1], the system named is H9 cells.
Protocol: (B) Peptide taken up into cells was detected by staining fixed and permeabilized cytospins with FITC-streptavidin. Representative images of β2cyt peptides taken up into H9 cells were visualized by fluorescence microscopy. Left-hand panels show nuclei stained with DAPI.
Biotinylated peptides were added to the cells in serum-free RPMI 1640 medium for 30 min to 2 h at 37° C. or room temperature. The cells were washed twice with PBS, resuspended into 1% FCS in PBS, and cytocentrifuged onto glass slides. Cytospin smears were fixed with 4% paraformaldehyde in PBS for 15 min at room temperature (RT), washed twice with PBS and permeabilized in PBS containing 0.2% Triton X-100. Biotinylated peptides were detected by incubating the cytospins with streptavidin-FITC (Sigma, Mo.) for 45 min at RT, and visualized using either a Leica TCS 4D confocal laser microscope, or Nikon E600 fluorescence microscope.
In data set [2] the test system is αLβ2-mediated adhesion of Mn++-activated H9 cells to ICAM-1. As to the kind of experiment: Cell adhesion assay: adhesion of Mn2+-activated H9 cells to ICAM-1-Fc. In kind it is cell-based, human. Particulars: for inhibition of cell adhesion to ICAM-1 (in words): Mn++-activated H9 cells, cell-permeable fusion peptide; for blocking of adhesion (in words): at 100 μM. As to the method:
The human T lymphoma cell line H9, was purchased from the American Type Culture Collection, Rockville, Md. It was cultured at 37° C. in 1640 medium supplemented with 50 U/ml penicillin, 50 μg/ml streptomycin, 200 μg/ml L-glutamine, 10% (v/v) FCS and 0.05 mM β-mercaptoethanol. All synthetic peptides were custom made by Mimotopes Pty Ltd., Victoria, Australia. The β2cyt peptides were N-terminally fused during synthesis to biotinylated penetratin (RQIKIWFQNRRMKWKK—Seq ID No. 22) or to a biotinylated D-isomeric form of an R9 polymer (Seq ID No. 32) to render them cell-permeable.
The soluble ICAM-1-Fc chimera was produced using the glutamine synthetase gene amplification system. The extracellular portions of human ICAM-1 fused to the Fc domain of human IgG1 were expressed from the pEE14 vector (kindly provided by Dr Chris Bebbington, Celltech Ltd, UK) in CHO K1 cells as described previously (18).
Lab-Tek 16-well glass slides (Nunc) or flat-bottom 96-well plates (Nunc Maxisorp) were coated overnight at 4° C. with purified ICAM-1-Fc at 10 μg/well in 100 μl of 0.1 M carbonate buffer (pH 9.5). After washing plates were blocked with 100% heat-inactivated FCS, and washed with Hanks balanced salt solution (HBSS) containing 10 mM Hepes, 2 mM Ca^2+ and 2 mM Mn^2+. H9 cells were either left unlabeled or labeled with the fluorescent dye chloromethyl fluorescein diacetate (CMFDA; Molecular Probes, Oregon). For peptide inhibition studies, H9 cells were preincubated with peptide in serum-free medium for 30 min at 37° C. and activated by suspension in an Mn^2+-containing buffer (HBSS: 10 mM Hepes containing 2 mM Ca^2+, 2 mM Mn^2+, and 2% FCS). Human IgG1 Ab (10 μg/ml; Sigma) was added to prevent nonspecific capture of cells to the Fc portion of […]. Cells were checked for viability by trypan blue exclusion, added to wells (10^6cells/well), and incubated for 30 min at 37° C. in a humidified atmosphere of 5% CO2. Non-adherent cells were removed by inverse centrifugation of the plates at 70×g for 5 min followed by gentle pipette washing. The number of unlabeled adherent cells was determined by counting the number of adherent cells in four independent fields at 100× magnification under an inverted microscope. The fluorescence of CMFDA-labeled adherent cells was measured using a VICTOR1420 multilabel counter (Wallac). Representative data are reported as mean±SD of two independent experiments performed in duplicate.

[3] abbreviates: at 25 μM, Mn++-activated H9 cells to ICAM-1, fused to r9.
The mark [4] stands for this setting: at 50 μM, Mn++-activated H9 cells to ICAM-1, fused to r9.
Where [5] appears, read: at 6 μM, H9 cells to ICAM-1, r9 fusion.

These results are taken from patent US20090118174A1, “Novel peptides and methods for the treatment of inflammatory disorders” (Auckland Uniservices Limited, priority 2005, published 2009).

Like-named read-outs stand apart in the source and are kept apart here. No end group written: not given here.

Regarding KALIHLSDLREY, in data set [1], the “uptake of penetratin fusion peptide into cells” value is listed as “readily taken up”.

For “NPLFKSATTT (not fully specified (N-terminus); also: biotinylated r9 carrier, attachment not given here) [β2cyt peptide fused to r9 (biotinylated D-isomeric nine-arginine polymer) to render it cell-permeable]”, the “inhibition of cell adhesion to ICAM-1 (in words)” value in data set [2] is recorded as “active”. For the same substance, the inhibition of adhesion in data set [2] (setting [3]) is listed as about 50%; in data set [2] (setting [4]) it was about 80%.

In the case of “VMNPKFAES (not fully specified (N-terminus); also: biotinylated r9 carrier, attachment not given here) [β2cyt peptide fused to r9 (biotinylated D-isomeric nine-arginine polymer) to render it cell-permeable]”, in data set [2], the “inhibition of cell adhesion to ICAM-1 (in words)” value is listed as “active”. In addition, the inhibition of adhesion in data set [2] (setting [3]) is about 50%; in data set [2] (setting [4]), about 80%.

On to YRRFEKEKLKSQWNND, for which, in data set [1] (human cell line H9, biotinylated peptide detected with streptavidin-FITC), the “uptake of penetratin fusion peptide into cells” value was “readily taken up”.

In data set [2] (setting [5]), “r9-NPKF: core talin-binding motif of β2cyt synthesized as fusion with the r9 carrier peptide (not fully specified (N-terminus); printed as r9-NPKF)” returned an inhibition of adhesion of 82%. For the same substance, the “blocking of adhesion (in words)” value in data set [2] (H9 cells to ICAM-1, r9 fusion) is recorded as “almost completely blocked adhesion”.

In data set [2] (setting [5]), “r9-NPLFKS: β2cyt hexamer synthesized as fusion with the r9 carrier peptide (not fully specified (N-terminus); printed as r9-NPLFKS)” had an inhibition of adhesion of 24%. For the same substance, in data set [2] (H9 cells to ICAM-1, r9 fusion), the “blocking of adhesion (in words)” value is “almost completely blocked adhesion”.
